Reference: patent publication US8148391B2 (Cephalon, Inc., priority 2006, dated 2012)
pIC50: −log10 of the molar value. Read-outs that look alike come from different tables or passages of the source. Blank lines part the entries; values can stand above or below the compound they belong to.

Columns and labels:
[1] = target: T1, c-Met (cytoplasmic domain) (Homo sapiens, UniProt P08581); experiment: c-Met Kinase Assay (same methods as for ALK, with modifications); assay type: biochemical
T1 construct: 10 ng/mL c-Met (cytoplasmic domain, Invitrogen Corporation #PV3143); purchased Invitrogen Corporation PV3143
Method in brief: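 Wells were coated with 10 μg/mL phospholipase C-γ substrate in TBS, and reactions were started with 10 ng/mL c-Met cytoplasmic domain and run at 37° C for 15 minutes. Phosphorylated product was detected with Eu-N1-labeled PT66 antibody. IC50 values came from sigmoidal variable-slope fits of percent inhibition versus log compound concentration.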

[2] = target: T2, baculovirus-expressed ALK (Homo sapiens, UniProt Q9UM73); experiment: ALK Kinase Assay (ELISA-type, time-resolved fluorescence); assay type: biochemical
T2 construct: host or cells: baculovirus expression system
Method in brief: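 Substrate coating: phospholipase C-γ, 10 μg/mL in TBS. Kinase step: 30 ng/ml ALK, 15 min, 37° C. Detection and analysis: Eu-N1 PT66 antibody, with IC50 fitted as a sigmoidal variable-slope dose-response curve.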

[3] = c-Met kinase inhibition, 1 μM ATP (Km level), read-out: cMet Activity
[4] = ALK kinase inhibition, 1 μM ATP (Km level), read-out: ALK Activity
[5] = 1 μM ATP (Km level), read-out: cMet Activity (c-Met Kinase Inhibition, IC50)
[6] = 1 μM ATP (Km level), read-out: ALK Activity (ALK Kinase Inhibition, IC50)
[7] = c-Met kinase inhibition, 1 μM ATP, read-out: cMet Activity
[8] = ALK kinase inhibition, 1 μM ATP, read-out: ALK Activity
[9] = 1 μM ATP (Km level), 10 ng/mL c-Met, read-out: cMet Activity (c-Met kinase inhibition, IC50 class)
[10] = 1 μM ATP (Km level), 30 ng/ml ALK, 37° C., 15 minutes, read-out: ALK Activity (ALK kinase inhibition, IC50 class)

T1 sequence (P08581 956-1390 limits assumed): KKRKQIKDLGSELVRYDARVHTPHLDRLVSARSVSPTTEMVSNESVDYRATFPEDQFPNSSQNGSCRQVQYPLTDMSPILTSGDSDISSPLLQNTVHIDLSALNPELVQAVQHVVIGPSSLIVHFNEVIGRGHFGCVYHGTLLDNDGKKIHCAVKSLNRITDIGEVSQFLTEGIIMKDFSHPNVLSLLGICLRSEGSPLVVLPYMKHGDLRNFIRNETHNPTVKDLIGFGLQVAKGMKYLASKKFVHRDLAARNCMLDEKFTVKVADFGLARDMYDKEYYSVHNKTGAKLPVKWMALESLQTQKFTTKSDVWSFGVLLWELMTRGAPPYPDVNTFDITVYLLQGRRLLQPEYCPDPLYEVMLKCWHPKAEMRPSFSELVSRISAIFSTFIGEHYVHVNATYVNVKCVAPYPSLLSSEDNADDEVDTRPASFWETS
T2 sequence (Q9UM73 19-1620): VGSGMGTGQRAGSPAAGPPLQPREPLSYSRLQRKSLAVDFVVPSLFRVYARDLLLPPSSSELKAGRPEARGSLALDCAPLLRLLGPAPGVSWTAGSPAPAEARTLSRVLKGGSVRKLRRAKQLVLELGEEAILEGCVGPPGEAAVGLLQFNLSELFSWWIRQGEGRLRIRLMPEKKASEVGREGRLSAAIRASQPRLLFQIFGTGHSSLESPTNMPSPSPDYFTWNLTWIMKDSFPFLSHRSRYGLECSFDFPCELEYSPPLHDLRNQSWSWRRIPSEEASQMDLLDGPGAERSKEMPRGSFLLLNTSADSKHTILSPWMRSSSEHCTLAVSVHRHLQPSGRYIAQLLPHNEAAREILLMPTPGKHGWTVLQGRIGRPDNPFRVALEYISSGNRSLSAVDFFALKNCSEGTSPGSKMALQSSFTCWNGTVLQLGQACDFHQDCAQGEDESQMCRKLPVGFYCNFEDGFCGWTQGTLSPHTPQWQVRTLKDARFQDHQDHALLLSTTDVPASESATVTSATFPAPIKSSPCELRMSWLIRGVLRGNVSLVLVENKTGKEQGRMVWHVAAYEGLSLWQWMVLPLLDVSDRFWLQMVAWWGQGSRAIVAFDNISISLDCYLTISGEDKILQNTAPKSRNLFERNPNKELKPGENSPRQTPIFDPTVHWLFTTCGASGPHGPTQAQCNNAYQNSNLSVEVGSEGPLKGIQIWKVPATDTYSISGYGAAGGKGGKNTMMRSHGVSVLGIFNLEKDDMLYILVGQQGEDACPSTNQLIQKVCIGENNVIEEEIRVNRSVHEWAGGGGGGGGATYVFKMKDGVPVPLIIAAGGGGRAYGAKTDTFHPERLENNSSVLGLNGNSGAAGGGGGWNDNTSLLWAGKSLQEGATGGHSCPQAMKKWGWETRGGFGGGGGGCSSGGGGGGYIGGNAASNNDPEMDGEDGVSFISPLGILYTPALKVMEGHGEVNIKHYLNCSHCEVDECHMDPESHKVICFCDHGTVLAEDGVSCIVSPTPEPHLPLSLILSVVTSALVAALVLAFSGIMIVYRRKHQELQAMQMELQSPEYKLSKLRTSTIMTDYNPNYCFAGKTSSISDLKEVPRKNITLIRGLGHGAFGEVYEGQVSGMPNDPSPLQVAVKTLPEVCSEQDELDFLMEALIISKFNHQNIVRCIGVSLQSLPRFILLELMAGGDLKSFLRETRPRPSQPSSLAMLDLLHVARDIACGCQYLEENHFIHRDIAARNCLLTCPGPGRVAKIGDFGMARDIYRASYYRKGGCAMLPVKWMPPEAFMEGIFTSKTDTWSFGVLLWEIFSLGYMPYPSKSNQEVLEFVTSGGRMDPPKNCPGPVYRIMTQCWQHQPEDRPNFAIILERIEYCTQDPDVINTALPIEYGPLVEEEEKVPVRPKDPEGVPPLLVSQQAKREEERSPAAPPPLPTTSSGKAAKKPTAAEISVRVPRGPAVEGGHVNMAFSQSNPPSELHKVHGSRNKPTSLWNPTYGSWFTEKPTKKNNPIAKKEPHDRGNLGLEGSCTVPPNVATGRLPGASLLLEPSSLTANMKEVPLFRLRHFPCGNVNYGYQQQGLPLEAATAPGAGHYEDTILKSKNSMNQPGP

pIC50 [1, 7]: > 7.00 | pIC50 [2, 8]: 6.00 to 7.00
Compound: CCN1C(=O)CN(CCO)Cc2ccc(Nc3ncc(Cl)c(Nc4c(F)cccc4C(=O)NC)n3)cc21 [Example 1873, 2-{5-Chloro-2-[1-ethyl-4-(2-hydroxy-ethyl)-2-oxo-2,3,4,5-tetrahydro-1H-benzo[e][1,4]diazepin-8-ylamino]-pyrimidin-4-ylamino}-3-fluoro-N-methyl-benzamide]

pIC50 [1, 5]: < 5.00 | pIC50 [2, 6]: 5.00 to 6.00
Compound: COc1ccc(Nc2ncc(Cl)c(N[C@H]3[C@@H](C(N)=O)[C@@H]4C=C[C@H]3C4)n2)c2c1CCCC(N1CCOCC1)C2 (single isomer, unassigned) [Example 943]

pIC50 [1, 9]: 5.00 to 6.00 | pIC50 [2, 10]: > 7.00
Compound: COc1cc2c(cc1Nc1ncc(Cl)c(Nc3ccccc3S(=O)(=O)C(C)C)n1)CCN(CCS(C)(=O)=O)CC2 [Example 1164, 5-Chloro-N*2*-[3-(2-methanesulfonyl-ethyl)-8-methoxy-2,3,4,5-tetrahydro-1H-benzo[d]azepin-7-yl]-N*4*-[2-(propane-2-sulfonyl)-phenyl]-pyrimidine-2,4-diamine]

pIC50 [1, 5]: < 5.00 | pIC50 [2, 6]: > 7.00
Compound: CC1(C)CCCOc2c(Nc3ncc(Cl)c(N[C@@H]4CCCC[C@H]4NS(C)(=O)=O)n3)cccc21 [Example 875, N-{(1R,2R)-2-[5-Chloro-2-(5,5-dimethyl-2,3,4,5-tetrahydro-benzo[b]oxepin-9-ylamino)-pyrimidin-4-ylamino]-cyclohexyl}-methanesulfonamide]

pIC50 [1, 7]: 6.00 to 7.00 | pIC50 [2, 8]: > 7.00
Compound: COCCN1CCc2ccc(Nc3ncc(Cl)c(Nc4ccccc4S(=O)(=O)C(C)C)n3)cc2CC1 [Example 1685, 5-Chloro-N*2*-[3-(2-methoxy-ethyl)-2,3,4,5-tetrahydro-1H-benzo[d]azepin-7-yl]-N*4*-[2-(propane-2-sulfonyl)-phenyl]-pyrimidine-2,4-diamine]

pIC50 [1, 9]: 6.00 to 7.00 | pIC50 [2, 10]: 6.00 to 7.00
Compound: CNC(=O)c1sccc1Nc1nc(Nc2ccc3c(c2)OCCCN3C(=O)OCCCN(C)C)ncc1Cl [Example 1428, 3-[5-Chloro-4-(2-methylcarbamoyl-thiophen-3-ylamino)-pyrimidin-2-ylamino]-7,8-dihydro-6H-5-oxa-9-aza-benzocycloheptene-9-carboxylic acid 3-dimethylamino-propyl ester]

pIC50 [1, 9]: 5.00 to 6.00 | pIC50 [2, 10]: > 7.00
Compound: CC(C)S(=O)(=O)c1cccc(F)c1Nc1nc(Nc2ccc3c(c2)C(C)(C)CCC(=O)N3)ncc1Cl [Example 1254, 7-{5-Chloro-4-[2-fluoro-6-(propane-2-sulfonyl)-phenylamino]-pyrimidin-2-ylamino}-5,5-dimethyl-1,3,4,5-tetrahydro-1-benzazepin-2-one]

pIC50 [1, 9]: > 7.00 | pIC50 [2, 10]: > 7.00
Compound: CN1C(=O)CCCc2cc(Nc3ncc(Cl)c(Nc4c(F)cccc4C(=O)NCC#N)n3)ccc21 [Example 1045, 2-[5-Chloro-2-(1-methyl-2-oxo-2,3,4,5-tetrahydro-1H-benzo[b]azepin-7-ylamino)-pyrimidin-4-ylamino]-N-cyanomethyl-3-fluoro-benzamide]

pIC50 [1, 5]: 6.00 to 7.00 | pIC50 [2, 6]: > 7.00
Compound: CN1CCN(C2CCc3ccc(Nc4ncc(Cl)c(Nc5ccccc5S(=O)(=O)N(C)C)n4)cc3CC2)CC1 (stereo not drawn) [Example 890, 2-{5-Chloro-2-[7-(4-methyl-piperazin-1-yl)-6,7,8,9-tetrahydro-5H-benzocyclohepten-2-ylamino]-pyrimidin-4-ylamino}-N,N-dimethyl-benzenesulfonamide]

pIC50 [1, 7]: > 7.00 | pIC50 [2, 8]: > 7.00
Compound: CN1C(=O)OCCc2cc(Nc3ncc(Cl)c(Nc4c(F)cccc4OCCO)n3)ccc21 [Example 1732, 2-{5-Chloro-4-[2-fluoro-6-(2-hydroxy-ethoxy)-phenylamino]-pyrimidin-2-ylamino}-5-methyl-8,9-dihydro-5H-7-oxa-5-aza-benzocyclohepten-6-one]

Further lines, the compound ahead of its results:

Compound: CNC(=O)c1ccccc1Nc1nc(Nc2ccc3c(c2)C2CCC(C3)N2)ncc1Cl (stereo not drawn) [Example 79, 2-[2-(12-Aza-tricyclo[7.2.1.0*2,7*]dodeca-2(7),3,5-trien-4-ylamino)-5-chloro-pyrimidin-4-ylamino]-N-methyl-benzamide]
pIC50 [1, 3]: > 7.00 | pIC50 [2, 4]: > 7.00

Compound: COCCN1CCc2ccc(Nc3ncc(Cl)c(N[C@@H]4CCCC[C@H]4O)n3)cc2CC1 (relative stereo) [Example 318, trans-2-{5-Chloro-2-[3-(2-methoxy-ethyl)-2,3,4,5-tetrahydro-1H-benzo[d]azepin-7-ylamino]-pyrimidin-4-ylamino}-cyclohexanol]
pIC50 [1, 3]: < 5.00 | pIC50 [2, 4]: 5.00 to 6.00

Compound: N-((1R,2R)-2-{5-Chloro-2-[7-(2,2,2-trifluoro-ethylamino)-6,7,8,9-tetrahydro-5H-benzocyclohepten-2-ylamino]-pyrimidin-4-ylamino}-cyclohexyl)-methanesulfonamide [Example 687]
pIC50 [1, 5]: < 5.00 | pIC50 [2, 6]: > 7.00

Compound: CCN1C(=O)CCCc2ccc(Nc3ncc(Br)c(Nc4c(F)cccc4C(=O)NC)n3)cc21 [Example 359, 2-[5-Bromo-2-(1-ethyl-2-oxo-2,3,4,5-tetrahydro-1H-benzo[b]azepin-8-ylamino)-pyrimidin-4-ylamino]-3-fluoro-N-methyl-benzamide]
pIC50 [1, 3]: > 7.00 | pIC50 [2, 4]: > 7.00

Compound: COc1ccc(Nc2nc(Nc3cc4c(cc3OC)CCN(C(=O)C3COCCO3)CC4)ncc2Cl)c(-n2cccn2)c1 (stereo not drawn) [Example 633, {7-[5-Chloro-4-(4-methoxy-2-pyrazol-1-yl-phenylamino)-pyrimidin-2-ylamino]-8-methoxy-1,2,4,5-tetrahydro-benzo[d]azepin-3-yl}-[1,4]dioxan-2-yl-methanone]
pIC50 [1, 5]: < 5.00 | pIC50 [2, 6]: > 7.00

Compound: 1-[5-Chloro-2-(3-dimethylcarbamoylmethyl-8-methoxy-2,3,4,5-tetrahydro-1H-benzo[d]azepin-7-ylamino)-pyrimidin-4-ylamino]-cyclopentanecarboxylic acid methylamide [Example 1203]
pIC50 [1, 9]: < 5.00 | pIC50 [2, 10]: 6.00 to 7.00

Compound: CO[C@@H](CN1CCc2ccc(Nc3ncc(Cl)c(N[C@@H]4CCCC[C@H]4NS(C)(=O)=O)n3)cc2CC1)C(F)(F)F [Example 336, N-((1R,2R)-2-{5-Chloro-2-[3-((S)-3,3,3-trifluoro-2-methoxy-propyl)-2,3,4,5-tetrahydro-1H-benzo[d]azepin-7-ylamino]-pyrimidin-4-ylamino}-cyclohexyl)-methanesulfonamide]
pIC50 [1, 3]: 6.00 to 7.00 | pIC50 [2, 4]: > 7.00

Compound: N-((1R,2R)-2-{5-Chloro-2-[7-(2,2-difluoro-ethylamino)-6,7,8,9-tetrahydro-5H-benzocyclohepten-2-ylamino]-pyrimidin-4-ylamino}-cyclohexyl)-methanesulfonamide [Example 675]
pIC50 [1, 5]: < 5.00 | pIC50 [2, 6]: > 7.00

Compound: CNC(=O)c1ccccc1Nc1nc(Nc2ccc3c(c2)C2CC3CN(C(C)C)C2)ncc1Cl (stereo not drawn) [Example 158, 2-[5-chloro-2-(10-isopropyl-10-aza-tricyclo[6.3.1.0*2,7*]dodeca-2,4,6-trien-4-ylamino)-pyrimidin-4-ylamino]-N-methyl-benzamide]
pIC50 [1, 3]: 6.00 to 7.00 | pIC50 [2, 4]: > 7.00

Compound: COCCN1CCc2ccc(OC)c(Nc3ncc(Cl)c(N[C@@H]4CCCC[C@H]4NS(C)(=O)=O)n3)c2CC1 [Example 244, N-((1R,2R)-2-{5-Chloro-2-[7-methoxy-3-(2-methoxy-ethyl)-2,3,4,5-tetrahydro-1H-benzo[d]azepin-6-ylamino]-pyrimidin-4-ylamino}-cyclohexyl)-methanesulfonamide]
pIC50 [1, 3]: < 5.00 | pIC50 [2, 4]: 5.00 to 6.00

Compound: CCN1C(=O)CCCc2cc(Nc3ncc(Cl)c(Nc4cc(Cl)ccc4OC)n3)c(OC)cc21 [Example 137, 7-[5-Chloro-4-(5-chloro-2-methoxy-phenylamino)-pyrimidin-2-ylamino]-1-ethyl-8-methoxy-1,3,4,5-tetrahydro-benzo[b]azepin-2-one]
pIC50 [1, 3]: < 5.00 | pIC50 [2, 4]: 6.00 to 7.00

Compound: COc1cc2c(cc1Nc1ncc(Cl)c(Nc3ccccc3S(=O)(=O)N3CCN(C)CC3)n1)CCN(CC(=O)N(C)C)CC2 [Example 837, 2-(7-{5-Chloro-4-[2-(4-methyl-piperazine-1-sulfonyl)-phenylamino]-pyrimidin-2-ylamino}-8-methoxy-1,2,4,5-tetrahydro-benzo[d]azepin-3-yl)-N,N-dimethyl-acetamide]
pIC50 [1, 5]: < 5.00 | pIC50 [2, 6]: > 7.00

Compound: NC(=O)[C@@H]1CCCC[C@H]1Nc1nc(Nc2ccc3c(c2)CCC(NCC(F)(F)F)CC3)ncc1Cl (stereo partly drawn) [Example 653]
pIC50 [1, 5]: 6.00 to 7.00 | pIC50 [2, 6]: > 7.00

Compound: COc1c(Nc2ncc(Cl)c(N[C@H]3[C@@H](C(N)=O)[C@@H]4C=C[C@H]3C4)n2)ccc2c1CC(N1CCOCC1)CCC2 (mixture of isomers) [Example 1204, (1S,2S,3R,4R)-3-[5-Chloro-2-(1-methoxy-8-morpholin-4-yl-6,7,8,9-tetrahydro-5H-benzocyclohepten-2-ylamino)-pyrimidin-4-ylamino]-bicyclo[2.2.1]hept-5-ene-2-carboxylic acid amide]
pIC50 ([1]; cMet Activity (c-Met kinase inhibition, IC50 class), 1 μM ATP (Km level), 10 ng/mL c-Met): < 5.00 | pIC50 [2, 10]: > 7.00
